Where two headings read alike, the source gives them in different places.
Experiments:
Format in all cases: cell-based
[1] = test system: Neospora caninum parasites (NC-1 strain); assay: N. caninum (NC-1, lac-Z) growth inhibition in HFF, β-Gal assay; settings: N. caninum NC-1 lac-Z, 72 h, 10-point dose response 5 μM-0.01 μM, average of three biological replicates, read-out: EC50
Method: Neospora caninum parasites (NC-1 strain) expressing a lac-Z transgene (1) were serially passaged as tachyzoites in human foreskin fibroblasts cultured in DMEM supplemented with 10% fetal bovine serum (FBS), glutamine (10 mM) and gentamycin (10 μg/mL). Mature cultures were scraped, syringe passed using a 25 g needle to release parasites, filtered through a 3 micron polycarbonate filter to remove host cell debris and counted prior to each assay. All cultures were maintained in a 37° C. incubator with 5% CO2 and were verified mycoplasma free using the e-Myco plus Mycoplasma PCR detection kit (Boca Scientific).
Compounds were prepared as 10 mM stock in 100% DMSO. Pyrimethamine (positive control) and DMSO were included as controls in all plates and all replicates. The EC50 values were determined using a 10-point dose response curve using a 2-fold dilution series from 5.0 μM to 0.01 μM across the plate. Experiments were conducted in 96-well plates containing confluent HFF cells. Each assay plate was inoculated with 1×10^3 parasites (100 μL) containing 100 μL of 2× compound and incubated for 72 h prior to preparation for the j-Gal assay as described in Seeber, F. et al., Gene 169 (1996): 39-45, hereby incorporated by reference in its entirety and particularly in relation to the β-Gal assay protocol. Briefly, culture medium was replaced, wells rinsed with 200 μL of PBS followed by incubation with 50 μL of lysis buffer (100 mM HEPES, 1 mM MgSO4, 1% Triton X-100, 5 mM DTT) for 10 min at 50° C.
EC50 values determined from 10-point dose response curve (5 μM-0.01 μM) and presented as the average of three biological replicates. Linear regression and dose response inhibition (log ([compound]) vs normalized response-variable slope) were performed with Prism 8 for Mac (Graphpad Software, Inc.) and both the fits and data are shown in FIG. 1. Values represent the average of three biological replicates each with two internal replicates and are plotted as mean±S.E.M.

[2] = test system: Toxoplasma gondii tachyzoites (ME49-FLUC, type 2); assay: T. gondii ME49-FLUC tachyzoite growth inhibition in HFF, luciferase assay; settings: T. gondii ME49-FLUC (type 2) tachyzoites in HFF
Method: Toxoplasma gondii tachyzoites (ME49-FLUC, type 2) (27) were serially passaged in human foreskin fibroblasts (HFF) cultured in complete DMEM medium (DMEM supplemented with 10% fetal bovine serum (FBS), glutamine (10 mM) and gentamycin (10 μg/mL)). For each assay described, infected monolayers were scraped, needle passed (23 ga), and parasites were separated from host cell debris using a three (3) micron pore polycarbonate filter. HeLa cells were cultured in MEM media that contained 10% FBS, 4 mM L-glutamine and 10 mM HEPES solution. Cell culture and assays were conducted using a 37° C. incubator with 5% CO2. Cell cultures were negative for mycoplasma, as determined using the e-Myco plus kit (Intron Biotechnology).
White, clear bottom 96-well assay plates were set up as described above with the following modifications. Only the inner 60 wells were used for the assay in order to reduce variability that results from evaporation during incubation. Dilution of compound stock is as described above, with all wells containing a final concentration of 0.1% DMSO. DMSO (vehicle control) and pyrimethamine (2.5 μM, positive control) were included in the outside wells of all plates as controls. Liquid handling (serial dilutions, compound dilutions, cell feeding, plate-to-plate transfers, etc.) utilized a Dual Pod Biomek FX. Luciferase assays were performed using the integrated and automated platform (Beckman Coulter). The SAMI EX software was used to design and execute the screening assay and enabled efficient and uniform assay execution across all the assay plates.

[3] = test system: Toxoplasma gondii strains expressing FLUC; assay: microbe, parasite or virus in culture
Method: The ability of bicyclic azetidines to inhibit different strains of T. gondii was tested using a series of firefly luciferase (FLUC)-tagged lines. […] A similar strategy was utilized to derive FLUC expressing lines from additional T. gondii strains MAS (type 4) and FOU (type 6).

**Q.** For COc1ccc(NC(=O)N2CCCCN3[C@H](CN(C)C)[C@H](c4ccc(C#Cc5ccccc5)cc4)[C@@H]3C2)cc1 [Compound 15, (8R,9S,10S)-10-((dimethylamino)methyl)-N-(4-methoxyphenyl)-9-(4-(phenylethynyl)phenyl)-1,6-diazabicyclo[6.2.0]decane-6-carboxamide], which EC50 [1] is on record?
**A.** 250 nM

**Q.** And the EC50 [2]?
**A.** 22.6 nM

**Q.** And the EC50 ([3]; genotype 4, read-out: Average EC50 ± S.D.)?
**A.** 41.9 nM

**Q.** And the EC50 ([3]; genotype 5, read-out: Average EC50 ± S.D.)?
**A.** 26.9 nM

**Q.** What about the EC50 ([3]; genotype 6, read-out: Average EC50 ± S.D.) of the same compound?
**A.** 45.1 nM

**Q.** And the EC50 ([3]; strain ME49, genotype 2, three or more independent titrations, read-out: Average EC50 ± S.D.)?
**A.** 49.4 nM

**Q.** What about the EC50 ([3]; strain VAND, genotype 10, three or more independent titrations, read-out: Average EC50 ± S.D.) of the same compound?
**A.** 27.9 nM

From patent US12600727B2, “Treatment of infections of toxoplasma gondii and closely related parasites” (WASHINGTON UNIVERSITY, priority 2018, dated 2026)
